# Test system: 699152-130-R-J1-PDC complex spheroid viability
# Assay: Anticancer human tumor 699152-130-R-J1-PDC patient-derived pancreatic carcinoma cell line growth inhibition [POLQ]
# Conditions: for IC50: curve of first compound; for viability, T/C: stronger effect = lower value
# How it was run: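 Patient-derived tumour cells were co-cultured with HUVEC and mesenchymal stem cells as multicellular spheroids at 37 °C. They were treated with POLQ inhibitors (novobiocin, ART-558, RP6685) alone or combined with other agents. Top concentrations were at or near clinical Cmax (otherwise 10 microM; SN-38 at 1 microM), decreasing in half-log steps.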
# [1] = second compound 0.0316 µM, first compound 0.00316 µM
# [2] = second compound 0.0316 µM, first compound 0.01 µM
# [3] = second compound 0.0316 µM, first compound 0.0316 µM
# [4] = second compound 0.0316 µM, first compound 0.1 µM
# [5] = second compound 0.0316 µM, first compound 0.316 µM
# [6] = second compound 0.0316 µM, first compound 1 µM
# [7] = second compound 0.1 µM, first compound 0.00316 µM
# [8] = second compound 0.1 µM, first compound 0.01 µM
# [9] = second compound 0.1 µM, first compound 0.0316 µM
# [10] = second compound 0.1 µM, first compound 0.1 µM
# [11] = second compound 0.1 µM, first compound 0.316 µM
# [12] = second compound 0.1 µM, first compound 1 µM
# [13] = second compound 0.316 µM, first compound 0.00316 µM
# [14] = second compound 0.316 µM, first compound 0.01 µM
# [15] = second compound 0.316 µM, first compound 0.0316 µM
# [16] = second compound 0.316 µM, first compound 0.1 µM
# [17] = second compound 0.316 µM, first compound 0.316 µM
# [18] = second compound 0.316 µM, first compound 1 µM
# [19] = second compound 1 µM, first compound 0.00316 µM
# [20] = second compound 1 µM, first compound 0.01 µM
# [21] = second compound 1 µM, first compound 0.0316 µM
# [22] = second compound 1 µM, first compound 0.1 µM
# [23] = second compound 1 µM, first compound 0.316 µM
# [24] = second compound 1 µM, first compound 1 µM
# [25] = second compound 3.16 µM, first compound 0.00316 µM
# [26] = second compound 3.16 µM, first compound 0.01 µM
# [27] = second compound 3.16 µM, first compound 0.0316 µM
# [28] = second compound 3.16 µM, first compound 0.1 µM
# [29] = second compound 3.16 µM, first compound 0.316 µM
# [30] = second compound 3.16 µM, first compound 1 µM
# [31] = second compound 10 µM, first compound 0.00316 µM
# [32] = second compound 10 µM, first compound 0.01 µM
# [33] = second compound 10 µM, first compound 0.0316 µM
# [34] = second compound 10 µM, first compound 0.1 µM
# [35] = second compound 10 µM, first compound 0.316 µM
# [36] = second compound 10 µM, first compound 1 µM
# [37] = second compound 0.0316 µM, first compound 3.16 µM
# [38] = second compound 0.0316 µM, first compound 10 µM
# [39] = second compound 0.1 µM, first compound 3.16 µM
# [40] = second compound 0.1 µM, first compound 10 µM
# [41] = second compound 0.316 µM, first compound 3.16 µM
# [42] = second compound 0.316 µM, first compound 10 µM
# [43] = second compound 1 µM, first compound 3.16 µM
# [44] = second compound 1 µM, first compound 10 µM
# [45] = second compound 3.16 µM, first compound 3.16 µM
# [46] = second compound 3.16 µM, first compound 10 µM
# [47] = second compound 10 µM, first compound 3.16 µM
# [48] = second compound 10 µM, first compound 10 µM
# 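Further: spheroids exposed to agents for 7 days before viability reading.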
# 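Wherever viability, T/C is given: percent of DMSO vehicle control viability so 100% = vehicle and 0% = no viable signal.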
structure (smiles),measurement,setting,value
CCc1c2c(nc3ccc(O)cc13)-c1cc3c(c(=O)n1C2)COC(=O)[C@]3(O)CC + Nc1ccc(C#CCN(C(=O)Cc2ncc(C(F)(F)F)cc2C(F)(F)F)c2ccc(F)cc2)nn1,IC50,second compound 0.0316 µM,0.0602 µM
same,IC50,second compound 0.1 µM,0.0483 µM
same,IC50,second compound 0.316 µM,0.0668 µM
same,IC50,second compound 1 µM,0.0363 µM
same,IC50,second compound 3.16 µM,0.0555 µM
same,IC50,second compound 10 µM,0.0495 µM
same,"viability, T/C",[1],82.1%
same,"viability, T/C",[2],55.2%
same,"viability, T/C",[3],58.4%
same,"viability, T/C",[4],47.2%
same,"viability, T/C",[5],36.4%
same,"viability, T/C",[6],11.4%
same,"viability, T/C",[7],83.1%
same,"viability, T/C",[8],57.4%
same,"viability, T/C",[9],52%
same,"viability, T/C",[10],48.3%
same,"viability, T/C",[11],32.6%
same,"viability, T/C",[12],12.6%
same,"viability, T/C",[13],72.7%
same,"viability, T/C",[14],61.6%
same,"viability, T/C",[15],55.8%
same,"viability, T/C",[16],47.1%
same,"viability, T/C",[17],32%
same,"viability, T/C",[18],8.12%
same,"viability, T/C",[19],74.7%
same,"viability, T/C",[20],55.2%
same,"viability, T/C",[21],51.2%
same,"viability, T/C",[22],44.3%
same,"viability, T/C",[23],30.5%
same,"viability, T/C",[24],14.9%
same,"viability, T/C",[25],88.7%
same,"viability, T/C",[26],66.4%
same,"viability, T/C",[27],54.4%
same,"viability, T/C",[28],48.5%
same,"viability, T/C",[29],29.6%
same,"viability, T/C",[30],10.8%
same,"viability, T/C",[31],92.2%
same,"viability, T/C",[32],71.2%
same,"viability, T/C",[33],52.2%
same,"viability, T/C",[34],44.2%
same,"viability, T/C",[35],27.7%
same,"viability, T/C",[36],9.98%
Cn1ncnc1[C@H]1c2n[nH]c(=O)c3cc(F)cc(c23)N[C@@H]1c1ccc(F)cc1 + Cc1cccc(N(C)C(=O)C2C(O)CCN2c2nc(C)cc(C(F)(F)F)c2C#N)c1,IC50,second compound 0.0316 µM,> 0.1 µM
same,IC50,second compound 0.1 µM,> 0.1 µM
same,IC50,second compound 0.316 µM,> 0.1 µM
same,IC50,second compound 1 µM,> 0.1 µM
same,IC50,second compound 3.16 µM,> 0.1 µM
same,IC50,second compound 10 µM,> 0.1 µM
same,"viability, T/C","second compound 0.0316 µM, first compound 0.000316 µM",103%
same,"viability, T/C","second compound 0.0316 µM, first compound 0.001 µM",87.7%
same,"viability, T/C",[1],95.1%
same,"viability, T/C",[2],88.6%
same,"viability, T/C",[3],99.4%
same,"viability, T/C",[4],81%
same,"viability, T/C","second compound 0.1 µM, first compound 0.000316 µM",100%
same,"viability, T/C","second compound 0.1 µM, first compound 0.001 µM",100%
same,"viability, T/C",[7],91.6%
same,"viability, T/C",[8],99.3%
same,"viability, T/C",[9],85.3%
same,"viability, T/C",[10],86.6%
same,"viability, T/C","second compound 0.316 µM, first compound 0.000316 µM",94.8%
same,"viability, T/C","second compound 0.316 µM, first compound 0.001 µM",97.6%
same,"viability, T/C",[13],86.4%
same,"viability, T/C",[14],89.3%
same,"viability, T/C",[15],117%
same,"viability, T/C",[16],73.6%
same,"viability, T/C","second compound 1 µM, first compound 0.000316 µM",100%
same,"viability, T/C","second compound 1 µM, first compound 0.001 µM",89.6%
same,"viability, T/C",[19],95%
same,"viability, T/C",[20],87.2%
same,"viability, T/C",[21],108%
same,"viability, T/C",[22],87.2%
same,"viability, T/C","second compound 3.16 µM, first compound 0.000316 µM",94.1%
same,"viability, T/C","second compound 3.16 µM, first compound 0.001 µM",102%
same,"viability, T/C",[25],93.8%
same,"viability, T/C",[26],95.7%
same,"viability, T/C",[27],93%
same,"viability, T/C",[28],90.7%
same,"viability, T/C","second compound 10 µM, first compound 0.000316 µM",104%
same,"viability, T/C","second compound 10 µM, first compound 0.001 µM",81.8%
same,"viability, T/C",[31],97.1%
same,"viability, T/C",[32],88.5%
same,"viability, T/C",[33],101%
same,"viability, T/C",[34],83.5%
COc1cc(C2c3cc4c(cc3C(OC3OC5COC(C)OC5C(O)C3O)C3COC(=O)C23)OCO4)cc(OC)c1O (stereo not drawn) + COC1C(OC(N)=O)C(O)C(Oc2ccc3c(O)c(NC(=O)c4ccc(O)c(CC=C(C)C)c4)c(=O)oc3c2C)OC1(C)C,IC50,second compound 0.0316 µM,4.01 µM
same,IC50,second compound 0.1 µM,3.17 µM
same,IC50,second compound 0.316 µM,4.05 µM
same,IC50,second compound 1 µM,2.51 µM
same,IC50,second compound 3.16 µM,4.61 µM
same,IC50,second compound 10 µM,3.04 µM
same,"viability, T/C",[3],92.1%
same,"viability, T/C",[4],99.5%
same,"viability, T/C",[5],66.4%
same,"viability, T/C",[6],72.5%
same,"viability, T/C",[37],51.3%
same,"viability, T/C",[38],40.2%
same,"viability, T/C",[9],83.9%
same,"viability, T/C",[10],94%
same,"viability, T/C",[11],71.1%
same,"viability, T/C",[12],61.1%
same,"viability, T/C",[39],54.3%
same,"viability, T/C",[40],38.2%
same,"viability, T/C",[15],99.5%
same,"viability, T/C",[16],80.4%
same,"viability, T/C",[17],74.4%
same,"viability, T/C",[18],70.8%
same,"viability, T/C",[41],46.8%
same,"viability, T/C",[42],42.7%
same,"viability, T/C",[21],94.5%
same,"viability, T/C",[22],87.8%
same,"viability, T/C",[23],75%
same,"viability, T/C",[24],60.4%
same,"viability, T/C",[43],47.7%
same,"viability, T/C",[44],38.4%
same,"viability, T/C",[27],93%
same,"viability, T/C",[28],86.2%
same,"viability, T/C",[29],75.3%
same,"viability, T/C",[30],66.7%
same,"viability, T/C",[45],49.7%
same,"viability, T/C",[46],46%
same,"viability, T/C",[33],87.3%
same,"viability, T/C",[34],85.6%
same,"viability, T/C",[35],78.5%
same,"viability, T/C",[36],62.6%
same,"viability, T/C",[47],50.8%
same,"viability, T/C",[48],40.6%
Nc1ccn(C2OC(CO)C(O)C2(F)F)c(=O)n1 (stereo not drawn) + Nc1ccc(C#CCN(C(=O)Cc2ncc(C(F)(F)F)cc2C(F)(F)F)c2ccc(F)cc2)nn1,IC50,second compound 0.0316 µM,0.476 µM
same,IC50,second compound 0.1 µM,0.771 µM
same,IC50,second compound 0.316 µM,1.77 µM
same,IC50,second compound 1 µM,2.37 µM
same,IC50,second compound 3.16 µM,1.44 µM
same,IC50,second compound 10 µM,2.16 µM
same,"viability, T/C",[3],71.5%
same,"viability, T/C",[4],58.8%
same,"viability, T/C",[5],50.5%
same,"viability, T/C",[6],46.9%
same,"viability, T/C",[37],50%
same,"viability, T/C",[38],43%
same,"viability, T/C",[9],78.4%
same,"viability, T/C",[10],65.5%
same,"viability, T/C",[11],52%
same,"viability, T/C",[12],46%
same,"viability, T/C",[39],55.6%
same,"viability, T/C",[40],37.5%
same,"viability, T/C",[15],81.3%
same,"viability, T/C",[16],60.5%
same,"viability, T/C",[17],55.9%
same,"viability, T/C",[18],55.4%
same,"viability, T/C",[41],49.6%
same,"viability, T/C",[42],44.6%
same,"viability, T/C",[21],79.2%
same,"viability, T/C",[22],63.9%
same,"viability, T/C",[23],57.4%
same,"viability, T/C",[24],58.5%
same,"viability, T/C",[43],51.5%
same,"viability, T/C",[44],41%
same,"viability, T/C",[27],84.2%
same,"viability, T/C",[28],68.3%
same,"viability, T/C",[29],55.2%
same,"viability, T/C",[30],55.3%
same,"viability, T/C",[45],49%
same,"viability, T/C",[46],40%
same,"viability, T/C",[33],103%
same,"viability, T/C",[34],82.8%
same,"viability, T/C",[35],63.1%
same,"viability, T/C",[36],52.8%
same,"viability, T/C",[47],50.9%
same,"viability, T/C",[48],44.9%
